In ChEMBL document CHEMBL1149989, “Synthesis and biological evaluation of flavonoids and related compounds as gastroprotective agents” (1996):

Each molecule was assayed on Rattus norvegicus (assay: Gastroprotective activity in rat ethanol-induced damage model following intraperitoneal administration.). Settings: not given.
Format: functional
Parameters: concentration or dose not given beside the values
In the case of O=c1cc(-c2cccnc2)oc2ccccc12, the Protection is reported as 97%.
Nc1ccccc1C(=O)/C=C/c1ccccc1 gave a Protection of 36%.
Cc1cc(=O)c2ccccc2o1 gave a Protection of 76%.
Molecule CCc1cc(=O)c2ccccc2o1 has a Protection of 74%.
O=c1cc(-c2cccs2)oc2ccccc12 gave a Protection of 82%.
S=c1cc(-c2ccccc2)oc2ccccc12 was tested, and the Protection was 58%.
COc1ccccc1C(=O)CC(=O)c1ccccc1 was tested, and the Protection was 19%.
For COc1cccc2oc(C)cc(=O)c12, the Protection was 81%.
For Oc1cc(-c2ccccc2)nc2ccccc12, the Protection was 17%.
Work on COc1cccc2c1C(=O)CC(c1ccccc1)O2 (configuration not stated) yielded a Protection of 32%.
Molecule Cn1c(-c2cc(=O)c3ccccc3o2)cc2ccccc21 has a Protection of 74%.
Work on O=c1cc(-c2ccccc2)sc2ccccc12 yielded a Protection of 67%.
With O=C(/C=C/c1ccccc1)c1ccccc1 [CHALCONE] the Protection was 32%.
For O=C1CC(c2ccccc2)Oc2ccccc21 (configuration not stated) [FLAVANONE], the Protection was 24%.
With O=c1cc(-c2ccccc2)oc2ccccc12 [FLAVONE] the Protection was 88%.
CC(C)Oc1ccc2c(=O)c(-c3ccccc3)coc2c1 [IPRIFLAVONE] was tested, and the Protection was less than 10%.
O=c1c(-c2ccccc2)coc2ccccc12 [ISOFLAVONE] showed a Protection of less than 10%.

Each molecule was assayed on Rattus norvegicus (assay: Effective dose for gastroprotective activity in rat ethanol-induced damage model following intraperitoneal administration.). Settings: ip.
Format: functional
Molecule Cc1cc(=O)c2ccccc2o1 has an ED50 of 5.4 mg/kg.
Molecule O=c1cc(-c2ccccc2)oc2ccccc12 [FLAVONE] has an ED50 of 6.9 mg/kg.

Each molecule was assayed on Rattus norvegicus (assay: Effective dose gastroprotective activity in rat ethanol-induced damage model following intraperitoneal administration.). Settings: ip.
Format: functional
CCc1cc(=O)c2ccccc2o1 showed an ED50 of 4.3 mg/kg.

Each molecule was assayed on Rattus norvegicus (assay: Compound was tested for gastroprotective activity in rat ethanol-induced damage model following oral administration (0.1 mg/kg).). Settings: not given.
Format: functional
CN/C(=N\CCSCc1nc[nH]c1C)NC#N [CIMETIDINE] gave a Protection of 14%.
With CCCCC[C@H](O)/C=C/[C@H]1[C@H](O)CC(=O)[C@@H]1C/C=C\CCCC(=O)O [DINOPROSTONE] the Protection was 64%.
